Experiment: Plasma PK after single oral administration in solution, cynomolgus monkey
Type: in vivo
Description: An oral formulation containing a compound of Formula (Ia) in […], 20% propylene glycol, 45 PEG 300, and 30% 0.01 N HCl was prepared. The formulation was orally administered to male rat, dog, cynomolgus monkey, and rhesus monkey according to the doses shown in Table 8 below.

[1] = male, plasma, single oral 4.0 mg/kg, solution in 5% ethanol/20% propylene glycol/45% PEG 300/30% 0.01 N HCl, mean ± SD, n=3

In the case of CC(C)(C#Cc1ccc(-c2ccc(Cl)c3c(NS(C)(=O)=O)nn(CC(F)(F)F)c23)c([C@H](Cc2cc(F)cc(F)c2)NC(=O)Cn2nc(C(F)(F)F)c3c2C(F)(F)[C@@H]2C[C@H]32)n1)S(C)(=O)=O [Formula (Ia), N—((S)-1-(3-(4-chloro-3-(methylsulfonamido)-1-(2,2,2-trifluoroethyl)-1H-indazol-7-yl)-6-(3-methyl-3-(methylsulfonyl)but-1-yn-1-yl)pyridin-2-yl)-2-(3,5-difluorophenyl)ethyl)-2-((3bS,4aR)-5,5-difluoro-3-(trifluoromethyl)-3b,4,4a,5-tetrahydro-1H-cyclopropa[3,4]cyclopenta[1,2-c]pyrazol-1-yl)acetamide], the bioavailability (male, plasma, single oral 4.0 mg/kg, same solution, calculated based on AUC0-24h, mean ± SD, n=3, read-out: F (oral bioavailability)) is reported as 2.2 ± 0.6%, the Cmax [1] is reported as 17.7 ± 5.6 µM and the Tmax [1] is reported as 8.7 ± 3.1 h. For the same molecule, the AUC(0-t) (male, plasma, single oral 4.0 mg/kg, solution in 5% ethanol/20% propylene glycol/45% PEG 300/30% 0.01 N HCl, mean ± SD, n=3, read-out: AUC0-24h) was 298 ± 85 µM·h and the “F % (bioavailability), in words” value (oral solution) was “low”.
